Calls of active or inactive are those of the source.
Assays:
[1] = Counterscreen for AddAB inhibitors: absorbance-based bacterial cell-based high throughput dose response assay for inhibitors of bacterial viability. [Related pubchem assays (depositor defined):AID435030, AID449728, AID449731, AID488942, AID488955, AID488956]; type: functional
Exodeoxyribonuclease V = Exodeoxyribonuclease V (Escherichia coli (strain K12), UniProt P04993+P07648+P08394); test: E. coli RecBCD inhibitors, dose response, counter-screen for AddAB inhibitor project, absorbance, V66 E. coli, mutant T4 phage (AID 492957); type: functional, cell-based, Escherichia coli str. K-12 substr. MG1655
[2] = biological target: Lysine-specific demethylase 4C (Homo sapiens, UniProt Q9H3R0); test: GASC-1 (JMJD2C) histone demethylase inhibitors, dose response, biochemical, DELFIA europium, cherry-picked samples (AID 488835); type: functional
[3] = C. albicans growth with fluconazole, confirmation, fluorescence, retest (AID 2467); type: functional, cell-based
[4] = NIH-3T3 fibroblast cytotoxicity, dose response, cytotoxicity control, cell-based, fluorescence, Alamar Blue, secondary assay (AID 2327); type: functional;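 further: NIH-3T3 mouse fibroblasts cultured with fluconazole at 8 µg/mL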
Prothrombin = Prothrombin (Bos taurus, UniProt P00735); test: thrombin inhibition, dose response, biochemical, fluorescence polarization, uHTS hits (AID 602369); type: functional
[5] = biological target: 26S proteasome non-ATPase regulatory subunit 14 (Homo sapiens, UniProt O00487); test: inhibition of proteasome subunit RPN11 – biochemical, fluorescence polarization, uHTS hits, confirmation (AID 602368); type: functional
26S proteasome non-ATPase regulatory subunit 14, sequence (O00487 whole entry): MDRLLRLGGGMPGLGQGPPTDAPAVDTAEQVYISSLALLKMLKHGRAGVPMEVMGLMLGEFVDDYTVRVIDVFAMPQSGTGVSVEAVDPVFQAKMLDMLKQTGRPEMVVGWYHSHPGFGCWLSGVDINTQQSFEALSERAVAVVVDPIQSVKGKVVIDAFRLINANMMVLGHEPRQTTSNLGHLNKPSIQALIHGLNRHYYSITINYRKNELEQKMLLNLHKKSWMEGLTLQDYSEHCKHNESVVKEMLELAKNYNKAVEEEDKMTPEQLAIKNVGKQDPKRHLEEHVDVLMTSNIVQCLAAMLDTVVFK

Vero = Vero cell cytotoxicity, cytotoxicity control for flavivirus capping enzyme inhibitors (AID 588742); type: functional; conditions: Chlorocebus sabaeus
Large T antigen = Large T antigen (Simian virus 40, UniProt P03070); type: functional, Betapolyomavirus macacae;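 further: Confirmatory-stage PubChem screen for compounds that inhibit SV40 T antigen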
Large T antigen, sequence (P03070 whole entry): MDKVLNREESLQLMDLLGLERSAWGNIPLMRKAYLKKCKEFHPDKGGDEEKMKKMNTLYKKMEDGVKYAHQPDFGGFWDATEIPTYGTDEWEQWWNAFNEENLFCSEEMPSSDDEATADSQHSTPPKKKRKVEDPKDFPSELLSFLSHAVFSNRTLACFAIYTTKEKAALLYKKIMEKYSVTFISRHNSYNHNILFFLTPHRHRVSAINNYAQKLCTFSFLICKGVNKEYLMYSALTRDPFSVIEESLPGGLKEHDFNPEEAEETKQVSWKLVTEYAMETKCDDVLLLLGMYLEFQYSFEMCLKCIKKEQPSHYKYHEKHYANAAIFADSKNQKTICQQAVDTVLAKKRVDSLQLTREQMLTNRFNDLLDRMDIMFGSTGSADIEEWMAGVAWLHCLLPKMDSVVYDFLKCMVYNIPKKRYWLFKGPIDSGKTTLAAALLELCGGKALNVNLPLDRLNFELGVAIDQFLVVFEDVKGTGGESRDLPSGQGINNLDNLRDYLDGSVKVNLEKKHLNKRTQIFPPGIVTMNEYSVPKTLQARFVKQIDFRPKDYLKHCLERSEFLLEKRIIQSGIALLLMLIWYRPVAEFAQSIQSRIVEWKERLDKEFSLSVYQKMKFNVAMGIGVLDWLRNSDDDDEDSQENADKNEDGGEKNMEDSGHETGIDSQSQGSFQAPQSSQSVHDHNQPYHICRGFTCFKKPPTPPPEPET

Phospholipase A2 = Phospholipase A2 (Homo sapiens, UniProt P04054); type: functional;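 further: confirmatory dose-response counterscreen on phospholipase A2, testing hits that came from an ultra-high-throughput screen for ATG4B inhibitors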
Phospholipase A2, sequence (P04054 whole entry): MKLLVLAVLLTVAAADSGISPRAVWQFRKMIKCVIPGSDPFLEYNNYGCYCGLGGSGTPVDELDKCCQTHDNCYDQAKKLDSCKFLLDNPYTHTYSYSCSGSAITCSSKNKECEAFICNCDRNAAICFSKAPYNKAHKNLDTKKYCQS

ORF 73 = ORF 73 (Human herpesvirus 8, UniProt O40947); test: inhibitors of C-LANA binding to LBS DNA, dose response, biochemical, fluorescence polarization, cherry-picked samples (AID 504725); design: species or system Human gammaherpesvirus 8;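 further: fluorescence polarization of a labeled DNA duplex reporting LANA DNA binding; potency is for inhibitors that block LANA binding to the DNA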
Cysteine protease ATG4B = biological target: T1, Cysteine protease ATG4B (Homo sapiens, UniProt Q9Y4P1); type: functional;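 further: Fluorescence-based dose-response confirmation assay measuring inhibition of ATG4B activity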
T1 sequence (Q9Y4P1 whole entry): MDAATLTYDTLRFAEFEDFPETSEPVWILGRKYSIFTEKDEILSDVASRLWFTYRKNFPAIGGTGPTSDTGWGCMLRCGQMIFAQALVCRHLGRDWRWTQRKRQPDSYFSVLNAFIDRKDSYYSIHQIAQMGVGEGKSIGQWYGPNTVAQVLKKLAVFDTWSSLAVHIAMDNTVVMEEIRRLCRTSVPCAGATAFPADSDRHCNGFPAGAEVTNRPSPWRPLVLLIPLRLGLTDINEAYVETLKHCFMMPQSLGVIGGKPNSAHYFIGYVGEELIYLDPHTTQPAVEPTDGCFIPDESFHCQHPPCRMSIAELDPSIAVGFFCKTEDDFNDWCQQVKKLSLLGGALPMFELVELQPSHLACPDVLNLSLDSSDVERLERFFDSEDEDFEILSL

[6] = biological target: Intestinal-type alkaline phosphatase (Homo sapiens, UniProt P09923); test: activation of human intestinal alkaline phosphatase – biochemical, dose response (AID 488873); type: functional
[7] = biological target: Intestinal-type alkaline phosphatase (Mus musculus, UniProt P24822); test: mouse intestinal alkaline phosphatase activators, dose response, biochemical, luminescence, uHTS hits (AID 488783); type: functional
Intestinal-type alkaline phosphatase (Mus musculus, UniProt P24822), sequence (P24822 whole entry): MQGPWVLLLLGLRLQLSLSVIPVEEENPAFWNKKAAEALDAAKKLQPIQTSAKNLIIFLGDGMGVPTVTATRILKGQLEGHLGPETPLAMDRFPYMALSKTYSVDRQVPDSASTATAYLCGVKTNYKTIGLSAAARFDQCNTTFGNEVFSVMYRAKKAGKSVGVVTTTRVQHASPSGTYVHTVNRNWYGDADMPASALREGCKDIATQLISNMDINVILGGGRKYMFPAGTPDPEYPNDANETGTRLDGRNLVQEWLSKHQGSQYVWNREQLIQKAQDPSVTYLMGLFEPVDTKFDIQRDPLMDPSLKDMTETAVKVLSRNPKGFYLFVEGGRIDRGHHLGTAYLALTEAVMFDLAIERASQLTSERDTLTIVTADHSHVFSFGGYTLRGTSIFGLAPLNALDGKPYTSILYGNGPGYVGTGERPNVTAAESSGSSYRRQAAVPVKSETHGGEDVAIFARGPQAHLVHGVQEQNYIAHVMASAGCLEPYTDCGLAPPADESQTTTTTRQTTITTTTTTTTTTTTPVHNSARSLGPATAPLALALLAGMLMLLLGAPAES

Genome polyprotein = Genome polyprotein (dengue virus type 2, UniProt P29990); test: Dengue-2 NS5 methyltransferase inhibitors, primary screen, biochemical, confirmation dose response (AID 588689); type: functional
[8] = biological target: 72 kDa type IV collagenase (Homo sapiens, UniProt P08253); test: Dose Response validation of uHTS RPN11 inhibitor hits using a MMP-2 Fluorescence assay.; type: functional
[9] = biological target: T2, Alkaline phosphatase, tissue-nonspecific isozyme (Homo sapiens, UniProt P05186); test: TNAP enzyme activators, dose response, selectivity assay for mouse IAP activator project, biochemical, TNAP isozyme, mouse IAP uHTS hits (AID 488880); type: functional
T2 sequence (P05186 whole entry): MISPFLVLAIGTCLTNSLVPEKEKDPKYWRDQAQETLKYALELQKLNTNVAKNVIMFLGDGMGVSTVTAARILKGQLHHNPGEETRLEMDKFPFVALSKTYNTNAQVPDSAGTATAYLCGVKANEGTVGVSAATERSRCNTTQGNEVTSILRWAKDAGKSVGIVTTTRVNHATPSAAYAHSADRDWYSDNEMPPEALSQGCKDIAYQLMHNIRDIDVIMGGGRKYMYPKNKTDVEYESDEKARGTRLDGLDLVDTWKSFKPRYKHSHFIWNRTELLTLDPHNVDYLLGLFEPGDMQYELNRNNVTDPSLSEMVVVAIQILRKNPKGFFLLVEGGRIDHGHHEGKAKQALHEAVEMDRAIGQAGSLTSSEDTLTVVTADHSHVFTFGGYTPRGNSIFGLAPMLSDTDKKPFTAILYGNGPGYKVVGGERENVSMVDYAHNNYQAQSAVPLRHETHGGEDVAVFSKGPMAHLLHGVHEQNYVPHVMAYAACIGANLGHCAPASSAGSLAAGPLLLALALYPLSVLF

[10] = biological target: Glucose-6-phosphate 1-dehydrogenase (Homo sapiens, UniProt P11413); test: human G6PD enzyme inhibitors, dose response, selectivity assay for P. falciparum G6PD inhibitor project, biochemical, fluorescence (AID 504792); type: functional
[11] = biological target: T3, Voltage-gated N-type calcium channel alpha-1B subunit/Amyloid beta A4 precursor protein-binding family A member 1 (Homo sapiens, UniProt Q00975+Q02410); type: protein assay
T3 sequence (Q00975 whole entry): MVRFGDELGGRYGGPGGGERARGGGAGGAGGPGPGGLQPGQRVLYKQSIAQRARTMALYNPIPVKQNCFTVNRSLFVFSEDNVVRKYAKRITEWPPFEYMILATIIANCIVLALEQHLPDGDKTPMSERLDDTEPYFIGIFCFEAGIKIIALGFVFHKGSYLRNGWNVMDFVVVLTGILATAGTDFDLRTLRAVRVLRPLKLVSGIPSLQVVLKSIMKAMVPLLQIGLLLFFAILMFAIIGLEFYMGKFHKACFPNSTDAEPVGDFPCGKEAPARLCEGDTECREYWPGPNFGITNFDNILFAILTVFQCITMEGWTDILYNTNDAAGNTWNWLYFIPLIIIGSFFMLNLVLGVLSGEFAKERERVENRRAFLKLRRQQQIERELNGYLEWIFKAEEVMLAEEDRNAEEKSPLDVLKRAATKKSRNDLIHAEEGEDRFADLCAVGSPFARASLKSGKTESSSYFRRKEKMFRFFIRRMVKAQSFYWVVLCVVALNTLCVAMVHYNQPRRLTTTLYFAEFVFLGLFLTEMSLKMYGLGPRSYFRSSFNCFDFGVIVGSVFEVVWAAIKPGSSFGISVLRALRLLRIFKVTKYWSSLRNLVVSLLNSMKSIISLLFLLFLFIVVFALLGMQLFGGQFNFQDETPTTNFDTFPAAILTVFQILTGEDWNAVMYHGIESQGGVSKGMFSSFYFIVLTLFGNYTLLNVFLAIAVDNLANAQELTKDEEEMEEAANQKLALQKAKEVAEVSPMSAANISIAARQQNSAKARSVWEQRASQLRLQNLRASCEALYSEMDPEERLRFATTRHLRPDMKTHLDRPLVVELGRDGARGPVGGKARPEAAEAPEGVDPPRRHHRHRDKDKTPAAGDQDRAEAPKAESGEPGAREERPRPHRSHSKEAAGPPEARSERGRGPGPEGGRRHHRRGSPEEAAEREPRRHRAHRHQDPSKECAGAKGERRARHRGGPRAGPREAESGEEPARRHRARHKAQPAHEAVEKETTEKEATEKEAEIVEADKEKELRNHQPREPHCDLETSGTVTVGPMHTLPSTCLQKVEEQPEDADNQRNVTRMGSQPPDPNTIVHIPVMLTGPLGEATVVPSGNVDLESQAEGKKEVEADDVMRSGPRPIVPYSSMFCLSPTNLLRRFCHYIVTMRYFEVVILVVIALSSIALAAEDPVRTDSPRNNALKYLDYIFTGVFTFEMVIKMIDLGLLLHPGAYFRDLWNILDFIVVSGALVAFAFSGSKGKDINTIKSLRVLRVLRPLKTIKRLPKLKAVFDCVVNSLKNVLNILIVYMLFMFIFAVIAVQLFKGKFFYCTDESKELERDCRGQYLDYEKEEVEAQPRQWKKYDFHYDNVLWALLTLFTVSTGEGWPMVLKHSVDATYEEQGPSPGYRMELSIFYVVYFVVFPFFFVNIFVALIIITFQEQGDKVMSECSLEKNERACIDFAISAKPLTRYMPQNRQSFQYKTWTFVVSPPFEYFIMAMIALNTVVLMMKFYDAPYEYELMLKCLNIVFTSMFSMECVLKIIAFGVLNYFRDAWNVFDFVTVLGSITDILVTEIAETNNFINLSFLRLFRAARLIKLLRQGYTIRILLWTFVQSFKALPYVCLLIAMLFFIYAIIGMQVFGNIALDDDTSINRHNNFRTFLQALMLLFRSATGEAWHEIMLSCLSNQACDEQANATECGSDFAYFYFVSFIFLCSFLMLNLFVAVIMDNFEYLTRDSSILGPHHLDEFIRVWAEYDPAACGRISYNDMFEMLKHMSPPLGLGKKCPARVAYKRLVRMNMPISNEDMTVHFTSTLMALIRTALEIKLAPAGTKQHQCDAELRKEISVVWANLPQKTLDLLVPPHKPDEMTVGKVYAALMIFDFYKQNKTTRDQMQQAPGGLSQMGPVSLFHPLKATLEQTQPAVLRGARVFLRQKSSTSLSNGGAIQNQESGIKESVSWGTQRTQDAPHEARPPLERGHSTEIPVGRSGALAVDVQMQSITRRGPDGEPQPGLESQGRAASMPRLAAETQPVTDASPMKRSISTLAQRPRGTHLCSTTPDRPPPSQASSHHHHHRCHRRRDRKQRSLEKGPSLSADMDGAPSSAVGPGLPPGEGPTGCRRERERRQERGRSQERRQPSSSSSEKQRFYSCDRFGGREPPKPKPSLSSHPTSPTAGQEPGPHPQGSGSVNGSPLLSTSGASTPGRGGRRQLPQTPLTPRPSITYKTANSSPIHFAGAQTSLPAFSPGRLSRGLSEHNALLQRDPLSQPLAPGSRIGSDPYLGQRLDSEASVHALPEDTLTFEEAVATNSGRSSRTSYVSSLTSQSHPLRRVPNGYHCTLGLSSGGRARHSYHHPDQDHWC
T3 sequence (Q02410 whole entry): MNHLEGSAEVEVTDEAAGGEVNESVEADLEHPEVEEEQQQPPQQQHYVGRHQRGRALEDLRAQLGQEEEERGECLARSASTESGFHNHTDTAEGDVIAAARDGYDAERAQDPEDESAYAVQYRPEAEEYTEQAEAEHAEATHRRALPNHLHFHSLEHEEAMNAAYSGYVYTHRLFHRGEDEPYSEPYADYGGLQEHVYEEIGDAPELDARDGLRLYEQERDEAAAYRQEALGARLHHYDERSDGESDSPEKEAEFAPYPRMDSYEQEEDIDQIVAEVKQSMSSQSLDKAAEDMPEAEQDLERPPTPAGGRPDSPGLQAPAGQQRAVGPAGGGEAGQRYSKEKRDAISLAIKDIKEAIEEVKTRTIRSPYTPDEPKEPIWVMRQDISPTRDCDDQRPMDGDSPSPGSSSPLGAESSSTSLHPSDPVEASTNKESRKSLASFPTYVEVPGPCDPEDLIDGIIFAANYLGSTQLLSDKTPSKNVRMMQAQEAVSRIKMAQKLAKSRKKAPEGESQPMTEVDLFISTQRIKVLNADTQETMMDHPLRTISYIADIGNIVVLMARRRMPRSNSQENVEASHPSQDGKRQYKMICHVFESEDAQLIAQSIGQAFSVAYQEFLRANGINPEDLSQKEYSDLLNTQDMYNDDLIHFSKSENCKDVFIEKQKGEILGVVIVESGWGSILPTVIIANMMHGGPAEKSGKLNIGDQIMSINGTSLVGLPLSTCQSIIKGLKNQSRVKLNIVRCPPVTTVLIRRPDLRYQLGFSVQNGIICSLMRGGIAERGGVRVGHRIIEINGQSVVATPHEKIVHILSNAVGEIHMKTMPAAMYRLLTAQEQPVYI

Beta-galactosidase = Beta-galactosidase (Escherichia coli, UniProt Q8VNN2); test: beta-galactosidase enzyme inhibitors and activators, dose response, artefact control for CCR6 antagonist project, biochemical, E. coli enzyme, set 3 (AID 504712); type: functional
[12] = growth suppression of PTEN-null colon cells, dose response, cell-based, HCT116 PTEN knockout (AID 1047); type: functional;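 further: HCT116 colon tumor cells with PTEN knocked out; cells exposed to compound for 60 hours before readout; potency for loss of cell viability measured by luminescence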
[13] = biological target: T3, Voltage-gated N-type calcium channel alpha-1B subunit/Amyloid beta A4 precursor protein-binding family A member 1; type: protein assay; remark: listed apart in the source
[14] = Fluorescence-based cell-based high throughput dose response assay for inhibitors of the interaction of nucleotide-binding oligomerization domain containing 2 (NOD2) and the receptor-interacting serine-threonine kinase 2 (RIPK2).; type: functional; conditions: Homo sapiens
[15] = biological target: T4, Mannose-6-phosphate isomerase (Homo sapiens, UniProt P34949); test: inhibitors of human PMI, primary screen, biochemical, fluorescence intensity, coupled assay (AID 1209)
T4 sequence (P34949 whole entry): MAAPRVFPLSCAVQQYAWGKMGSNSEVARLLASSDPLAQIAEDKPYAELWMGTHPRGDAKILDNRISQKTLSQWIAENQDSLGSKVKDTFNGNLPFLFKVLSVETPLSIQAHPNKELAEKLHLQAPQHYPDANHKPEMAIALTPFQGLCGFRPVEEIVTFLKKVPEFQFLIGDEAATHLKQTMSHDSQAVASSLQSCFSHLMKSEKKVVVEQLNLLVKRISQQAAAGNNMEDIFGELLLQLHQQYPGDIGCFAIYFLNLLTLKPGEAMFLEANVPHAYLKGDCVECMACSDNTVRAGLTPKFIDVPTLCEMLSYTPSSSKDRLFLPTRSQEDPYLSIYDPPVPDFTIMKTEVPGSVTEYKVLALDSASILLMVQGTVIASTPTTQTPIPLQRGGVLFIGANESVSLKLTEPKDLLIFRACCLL

[16] = SV40 cytopathic effect inhibition and cytotoxicity, confirmation, SV40 T antigen inhibitor project, BSC cells (AID 2615); type: functional, cell-based
[17] = growth suppression of beta-catenin-knockout colon cells, dose response, cell-based, HCT116, human colon tumor (AID 1045); type: functional;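 further: HCT116 colon tumor cells with beta catenin knocked out; cells exposed to compound for 60 hours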

O=C(NNC(=O)c1cc2ccccc2cc1O)Nc1ccc(Br)cc1
inactive: IC50 [1] > 119 µM | IC50 (Exodeoxyribonuclease V) > 119 µM

FC(F)(F)c1ccccc1N=C(S)NN=C1CCCCCC1
> 38 µM (not active): EC50 [3]
active: AC50 [2] 6.8 µM | EC50 [4] 54 µM

CC(C(=O)Nc1ccc(C(=O)O)c(O)c1)N1C(=O)/C(=C\c2ccco2)SC1=S (configuration not stated)
active: IC50 (Prothrombin) 98.5 µM | IC50 [5] 14.6 µM | CC50 (Vero) > 40 µM | IC50 (Large T antigen) 47.9 µM | AC50 (ORF 73) 66.3 µM | IC50 (Cysteine protease ATG4B) 11 µM | EC50 [6] 50.8 µM | EC50 [7] 51.2 µM | IC50 (Genome polyprotein) 79.4 µM | IC50 [8] 968 nM | EC50 [9] 62.2 µM
inactive: IC50 (Phospholipase A2) 26.6 µM

ClC(Cl)(c1nnnn1-c1ccccc1)c1nnnn1-c1ccccc1
active: IC50 [11] 4.38 µM | EC50 [12] 10.8 µM | IC50 [13] 5.93 µM | IC50 (Large T antigen) 5.47 µM | IC50 [14] 5.41 µM | IC50 [16] 10 µM | EC50 [17] 9.79 µM
inactive: IC50 [10] > 80 µM | IC50 (Beta-galactosidase) > 66.6 µM
> 50 µM (not active): IC50 [15]

Reference: ChEMBL document CHEMBL1201862, “PubChem BioAssay data set” (2004)
